The text below walks through data of ChEMBL document CHEMBL4028801, “A multifactorial approach to hepatobiliary transporter assessment enables improved therapeutic compound development” (Toxicol Sci, 2013).

As usually defined, the IC50 is the concentration at which inhibition is half-maximal. Usually AUC stands for concentration integrated over time. High values mean high exposure, low ones low exposure.

Bounds are passed on as bounds.

Series [1] can be described thus: Ratio of drug concentration at steady state in human at 100 to 200 mg, po TID after 8 hrs to IC50 for human MRP4 overexpressed in Sf9 insect cells. Type of series: ADME, organism-based. To be noted: in vivo.
Series [2] concerns the target Bile salt export pump (Homo sapiens, UniProt O95342). The experiment in a line: Inhibition of human BSEP overexpressed in Sf9 cell membrane vesicles assessed as uptake of [3H]-taurocholate in presence of ATP measured after 15 to 20 mins by membrane vesicle transport assay. Type of series: ADME, cell-based.
Series [3] in a line: Drug concentration at steady state in human at 100 to 200 mg, po TID after 8 hrs. The series is classed as ADME, organism-based. To be noted: in vivo, read-out: Css.
In series [4] the target is T1, ATP-binding cassette sub-family C member 4 (Homo sapiens, UniProt O15439).
T1 sequence (O15439 whole entry): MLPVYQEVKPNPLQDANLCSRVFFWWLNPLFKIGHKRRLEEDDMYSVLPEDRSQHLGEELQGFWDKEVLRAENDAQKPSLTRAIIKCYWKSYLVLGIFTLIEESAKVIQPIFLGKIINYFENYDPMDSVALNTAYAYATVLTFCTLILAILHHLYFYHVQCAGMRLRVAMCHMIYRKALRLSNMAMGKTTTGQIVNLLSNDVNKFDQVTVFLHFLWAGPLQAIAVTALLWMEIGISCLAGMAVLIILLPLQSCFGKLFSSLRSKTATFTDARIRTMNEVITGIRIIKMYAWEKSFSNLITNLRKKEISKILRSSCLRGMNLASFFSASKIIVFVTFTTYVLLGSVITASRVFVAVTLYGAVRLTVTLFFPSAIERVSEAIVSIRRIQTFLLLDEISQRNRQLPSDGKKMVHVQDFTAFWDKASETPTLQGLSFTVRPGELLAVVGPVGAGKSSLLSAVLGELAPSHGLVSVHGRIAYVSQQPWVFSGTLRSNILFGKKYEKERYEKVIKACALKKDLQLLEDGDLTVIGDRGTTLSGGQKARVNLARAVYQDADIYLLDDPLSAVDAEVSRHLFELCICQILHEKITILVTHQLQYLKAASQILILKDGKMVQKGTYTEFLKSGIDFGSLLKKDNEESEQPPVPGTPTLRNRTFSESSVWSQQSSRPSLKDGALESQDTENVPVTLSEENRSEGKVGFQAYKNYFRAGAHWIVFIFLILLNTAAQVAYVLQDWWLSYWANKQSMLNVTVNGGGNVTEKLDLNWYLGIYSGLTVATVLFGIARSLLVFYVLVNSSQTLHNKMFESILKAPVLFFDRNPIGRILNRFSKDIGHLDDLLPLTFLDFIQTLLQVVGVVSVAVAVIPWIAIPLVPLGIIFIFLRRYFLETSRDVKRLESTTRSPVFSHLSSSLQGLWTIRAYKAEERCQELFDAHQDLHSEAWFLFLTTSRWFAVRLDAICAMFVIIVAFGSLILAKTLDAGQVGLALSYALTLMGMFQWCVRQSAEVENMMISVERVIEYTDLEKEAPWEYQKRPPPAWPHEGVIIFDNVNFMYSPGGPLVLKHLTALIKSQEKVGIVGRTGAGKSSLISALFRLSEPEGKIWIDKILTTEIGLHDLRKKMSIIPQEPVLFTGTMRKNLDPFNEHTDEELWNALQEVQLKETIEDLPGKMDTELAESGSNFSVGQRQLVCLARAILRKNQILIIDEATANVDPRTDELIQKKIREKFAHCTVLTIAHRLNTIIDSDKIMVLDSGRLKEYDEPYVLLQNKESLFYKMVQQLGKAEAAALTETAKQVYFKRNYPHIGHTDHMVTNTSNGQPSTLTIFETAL
The experiment in a line: Inhibition of human MRP4 overexpressed in Sf9 cell membrane vesicles assessed as uptake of [3H]-estradiol-17beta-D-glucuronide in presence of ATP and GSH measured after 20 mins by membrane vesicle transport assay. Type of series: ADME, cell-based.

Series [5] concerns the target ATP-binding cassette sub-family C member 3 (Homo sapiens, UniProt O15438). The experiment in a line: Inhibition of human MRP3 overexpressed in Sf9 insect cell membrane vesicles assessed as uptake of [3H]-estradiol-17beta-D-glucuronide in presence of ATP and GSH measured after 10 mins by membrane vesicle transport assay. Type of series: ADME, cell-based.
Series [6] is described as follows: Ratio of drug concentration at steady state in human at 100 to 200 mg, po TID after 8 hrs to IC50 for human MRP3 overexpressed in Sf9 insect cells. Type of series: ADME, organism-based. The conditions noted are these: in vivo.
Series [7] can be described thus: Ratio of drug concentration at steady state in human at 100 to 200 mg, po TID after 8 hrs to IC50 for human BSEP overexpressed in Sf9 insect cells. To be noted: in vivo. The series is classed as ADME, organism-based.
Series [8] is described as follows: AUC in human at 100 to 200 mg, po TID after 8 hrs. The series is classed as ADME, organism-based. The conditions noted are these: in vivo.
Series [9] in a line: AUC in human at 125 to 500 mg, po QID after 6 hrs. The conditions noted are these: in vivo. Type of series: ADME, organism-based.
In series [10] the target is ATP-binding cassette sub-family C member 2 (Homo sapiens, UniProt Q92887). Nature of the series: Inhibition of human MRP2 overexpressed in Sf9 cell membrane vesicles assessed as uptake of [3H]-estradiol-17beta-D-glucuronide in presence of ATP and GSH measured after 20 mins by membrane vesicle transport assay.
ATP-binding cassette sub-family C member 2, sequence (Q92887 whole entry): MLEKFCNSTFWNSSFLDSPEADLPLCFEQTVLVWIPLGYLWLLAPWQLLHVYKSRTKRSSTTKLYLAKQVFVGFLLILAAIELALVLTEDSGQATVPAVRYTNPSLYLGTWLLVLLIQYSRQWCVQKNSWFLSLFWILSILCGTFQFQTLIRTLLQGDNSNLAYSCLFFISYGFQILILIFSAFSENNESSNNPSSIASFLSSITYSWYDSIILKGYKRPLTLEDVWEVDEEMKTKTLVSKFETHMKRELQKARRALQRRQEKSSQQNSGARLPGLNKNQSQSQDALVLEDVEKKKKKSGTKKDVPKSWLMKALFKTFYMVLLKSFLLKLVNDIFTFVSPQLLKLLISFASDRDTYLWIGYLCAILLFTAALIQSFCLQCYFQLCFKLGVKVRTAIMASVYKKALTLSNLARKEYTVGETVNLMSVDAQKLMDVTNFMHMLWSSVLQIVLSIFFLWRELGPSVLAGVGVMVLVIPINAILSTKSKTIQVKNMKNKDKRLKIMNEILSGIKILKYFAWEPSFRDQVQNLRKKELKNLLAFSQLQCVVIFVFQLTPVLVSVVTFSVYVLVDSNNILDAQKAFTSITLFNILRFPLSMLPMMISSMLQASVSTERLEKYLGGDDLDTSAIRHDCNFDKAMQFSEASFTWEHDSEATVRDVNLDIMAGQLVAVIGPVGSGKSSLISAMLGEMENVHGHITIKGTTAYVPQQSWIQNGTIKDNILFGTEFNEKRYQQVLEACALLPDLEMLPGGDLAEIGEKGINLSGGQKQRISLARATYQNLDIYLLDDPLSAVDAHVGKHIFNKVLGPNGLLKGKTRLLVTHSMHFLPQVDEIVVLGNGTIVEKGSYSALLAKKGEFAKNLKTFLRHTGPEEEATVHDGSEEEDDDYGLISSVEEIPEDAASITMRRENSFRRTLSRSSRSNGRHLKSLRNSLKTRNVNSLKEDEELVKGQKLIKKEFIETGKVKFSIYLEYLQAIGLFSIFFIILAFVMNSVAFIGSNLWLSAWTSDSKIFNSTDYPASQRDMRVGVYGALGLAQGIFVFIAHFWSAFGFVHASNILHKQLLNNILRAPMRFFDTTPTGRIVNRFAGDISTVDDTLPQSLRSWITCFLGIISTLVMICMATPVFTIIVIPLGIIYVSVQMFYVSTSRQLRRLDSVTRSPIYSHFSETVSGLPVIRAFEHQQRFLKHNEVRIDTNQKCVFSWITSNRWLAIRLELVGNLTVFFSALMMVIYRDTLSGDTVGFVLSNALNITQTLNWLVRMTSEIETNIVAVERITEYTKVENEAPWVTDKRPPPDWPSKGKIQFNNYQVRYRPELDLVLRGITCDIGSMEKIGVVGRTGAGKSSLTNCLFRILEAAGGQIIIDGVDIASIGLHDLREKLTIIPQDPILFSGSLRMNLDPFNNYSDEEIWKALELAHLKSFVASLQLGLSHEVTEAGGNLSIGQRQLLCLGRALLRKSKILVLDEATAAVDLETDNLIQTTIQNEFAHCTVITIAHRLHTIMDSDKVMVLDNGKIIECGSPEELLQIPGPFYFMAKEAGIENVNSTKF
A short description of series [11]: Ratio of drug concentration at steady state in human at 125 to 500 mg, po QID after 6 hrs to IC50 for human BSEP overexpressed in Sf9 insect cells. To be noted: in vivo. The series is classed as ADME, organism-based.
A short description of series [12]: Drug concentration at steady state in human at 125 to 500 mg, po QID after 6 hrs. The series is classed as ADME, organism-based. To be noted: in vivo, read-out: Css.
Series [13] can be described thus: Drug concentration at steady state in human at 200 mg, po TID after 8 hrs. Type of series: ADME, organism-based. The conditions noted are these: in vivo, read-out: Css.
The nature of series [14]: AUC in human at 200 mg, po TID after 8 hrs. The series is classed as ADME, organism-based. More on the design: time < 8 hr, dose 200 mg, route oral. The conditions noted are these: in vivo.
A short description of series [15]: Ratio of drug concentration at steady state in human at 200 mg, po TID after 8 hrs to IC50 for human BSEP overexpressed in Sf9 insect cells. The series is classed as ADME, organism-based. The conditions noted are these: in vivo.
Series [16] in a line: AUC in human at 15 to 60 mg, po QD after 24 hrs. Type of series: ADME, organism-based. To be noted: in vivo.
Series [17] in a line: Drug concentration at steady state in human at 15 to 60 mg, po QD after 24 hrs. The series is classed as ADME, organism-based. The conditions noted are these: in vivo, read-out: Css.
Series [18] in a line: Ratio of drug concentration at steady state in human at 15 to 60 mg, po QD after 24 hrs to IC50 for human MRP4 overexpressed in Sf9 insect cells. Type of series: ADME, organism-based. To be noted: in vivo.
A short description of series [19]: Ratio of drug concentration at steady state in human at 15 to 60 mg, po QD after 24 hrs to IC50 for human BSEP overexpressed in Sf9 insect cells. The series is classed as ADME, organism-based. The conditions noted are these: in vivo.

ATP-binding cassette sub-family C member 3, sequence (O15438 whole entry): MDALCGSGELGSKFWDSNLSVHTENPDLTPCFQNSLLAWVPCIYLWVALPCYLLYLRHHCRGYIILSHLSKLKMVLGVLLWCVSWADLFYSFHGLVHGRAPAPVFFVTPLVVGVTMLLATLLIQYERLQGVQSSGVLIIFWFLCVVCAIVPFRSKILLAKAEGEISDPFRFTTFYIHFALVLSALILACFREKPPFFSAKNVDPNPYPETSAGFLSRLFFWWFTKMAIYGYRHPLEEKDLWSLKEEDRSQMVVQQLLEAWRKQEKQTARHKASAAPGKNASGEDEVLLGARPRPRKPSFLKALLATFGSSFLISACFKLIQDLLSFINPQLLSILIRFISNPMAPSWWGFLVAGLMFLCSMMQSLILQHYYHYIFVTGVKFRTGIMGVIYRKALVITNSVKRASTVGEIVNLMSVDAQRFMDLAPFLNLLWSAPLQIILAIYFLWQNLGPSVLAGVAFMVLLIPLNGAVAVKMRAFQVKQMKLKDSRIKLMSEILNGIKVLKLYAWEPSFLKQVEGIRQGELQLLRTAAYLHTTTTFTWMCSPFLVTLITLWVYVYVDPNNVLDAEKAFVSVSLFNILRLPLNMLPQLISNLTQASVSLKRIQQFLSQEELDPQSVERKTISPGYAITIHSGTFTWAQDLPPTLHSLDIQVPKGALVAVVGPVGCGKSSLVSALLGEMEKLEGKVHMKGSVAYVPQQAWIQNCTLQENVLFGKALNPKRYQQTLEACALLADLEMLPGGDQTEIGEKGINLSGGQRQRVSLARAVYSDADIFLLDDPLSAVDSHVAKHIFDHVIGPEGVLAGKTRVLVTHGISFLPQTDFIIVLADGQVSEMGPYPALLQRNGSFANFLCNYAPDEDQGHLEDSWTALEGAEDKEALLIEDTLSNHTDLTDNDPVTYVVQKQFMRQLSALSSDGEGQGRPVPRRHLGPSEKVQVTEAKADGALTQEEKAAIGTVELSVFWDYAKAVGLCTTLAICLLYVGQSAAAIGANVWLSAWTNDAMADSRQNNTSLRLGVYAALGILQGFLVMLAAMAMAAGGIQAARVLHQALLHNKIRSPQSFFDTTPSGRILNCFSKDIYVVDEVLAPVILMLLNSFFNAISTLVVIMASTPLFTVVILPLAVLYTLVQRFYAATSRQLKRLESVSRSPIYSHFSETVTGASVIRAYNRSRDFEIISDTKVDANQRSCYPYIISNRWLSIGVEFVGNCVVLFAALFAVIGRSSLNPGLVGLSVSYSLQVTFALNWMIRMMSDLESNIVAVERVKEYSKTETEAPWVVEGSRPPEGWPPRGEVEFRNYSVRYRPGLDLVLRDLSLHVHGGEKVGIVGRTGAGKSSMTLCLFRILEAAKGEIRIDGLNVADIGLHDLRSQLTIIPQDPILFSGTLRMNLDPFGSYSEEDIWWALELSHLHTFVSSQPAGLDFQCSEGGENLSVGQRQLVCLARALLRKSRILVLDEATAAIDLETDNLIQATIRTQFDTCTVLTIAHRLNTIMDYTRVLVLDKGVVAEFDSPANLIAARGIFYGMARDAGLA
Bile salt export pump, sequence (O95342 whole entry): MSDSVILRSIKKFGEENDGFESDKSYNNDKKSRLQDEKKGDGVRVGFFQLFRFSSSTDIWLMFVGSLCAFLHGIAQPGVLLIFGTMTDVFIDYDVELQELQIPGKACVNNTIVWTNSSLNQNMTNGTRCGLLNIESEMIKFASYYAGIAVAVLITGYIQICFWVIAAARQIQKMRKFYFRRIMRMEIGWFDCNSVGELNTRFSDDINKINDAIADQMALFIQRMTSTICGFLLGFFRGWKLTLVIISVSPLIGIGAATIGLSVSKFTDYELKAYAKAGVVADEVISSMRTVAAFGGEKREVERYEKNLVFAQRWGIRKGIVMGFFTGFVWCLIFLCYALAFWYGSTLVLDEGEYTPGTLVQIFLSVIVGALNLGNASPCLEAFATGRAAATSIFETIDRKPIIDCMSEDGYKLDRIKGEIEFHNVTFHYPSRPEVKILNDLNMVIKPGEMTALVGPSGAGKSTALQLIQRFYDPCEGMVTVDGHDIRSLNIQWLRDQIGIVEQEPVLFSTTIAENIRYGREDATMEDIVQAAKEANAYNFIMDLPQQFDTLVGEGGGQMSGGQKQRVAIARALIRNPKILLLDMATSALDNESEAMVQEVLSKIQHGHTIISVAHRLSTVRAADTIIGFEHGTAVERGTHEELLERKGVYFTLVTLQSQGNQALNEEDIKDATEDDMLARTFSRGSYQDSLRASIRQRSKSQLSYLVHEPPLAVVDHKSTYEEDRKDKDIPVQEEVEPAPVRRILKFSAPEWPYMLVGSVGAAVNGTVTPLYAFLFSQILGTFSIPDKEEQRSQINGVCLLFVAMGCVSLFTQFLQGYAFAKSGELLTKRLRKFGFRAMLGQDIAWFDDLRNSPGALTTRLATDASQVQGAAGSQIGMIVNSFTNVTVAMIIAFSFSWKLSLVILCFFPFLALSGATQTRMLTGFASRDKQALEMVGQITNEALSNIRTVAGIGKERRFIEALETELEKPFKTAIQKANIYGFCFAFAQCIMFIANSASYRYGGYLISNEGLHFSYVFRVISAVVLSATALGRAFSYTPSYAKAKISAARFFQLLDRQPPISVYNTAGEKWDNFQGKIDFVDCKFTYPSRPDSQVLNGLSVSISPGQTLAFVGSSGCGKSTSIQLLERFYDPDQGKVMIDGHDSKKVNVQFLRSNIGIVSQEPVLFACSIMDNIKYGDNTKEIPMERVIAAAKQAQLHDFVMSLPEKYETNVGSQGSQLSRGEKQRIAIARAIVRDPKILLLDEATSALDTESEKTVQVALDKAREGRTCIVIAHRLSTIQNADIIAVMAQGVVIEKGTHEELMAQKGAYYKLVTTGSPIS

Regarding `Cc1ccc(C(=O)c2cc(O)c(O)c([N+](=O)[O-])c2)cc1` [TOLCAPONE], the Ratio in series [1] came to 1.338; in [6], 0.263; in [7], 0.611. Also, the results for the IC50 in [2], in series [4] and in series [5] were 36.6 µM, 16.7 µM and 85 µM, respectively. In series [3], the concentration at 8 h turned out to be 22.3 µM. The AUC at 8 h in [8] was 179 µM·h.
Take `Cc1onc(-c2c(Cl)cccc2Cl)c1C(=O)N[C@@H]1C(=O)N2[C@@H]1SC(C)(C)[C@@H]2C(=O)O` [DICLOXACILLIN]: the IC50 in series [2] is 56.4 µM; in series [4], greater than 133 µM; in series [10], greater than 133 µM; in series [5], greater than 133 µM. This compound also gave an AUC at 6 h in [9] of 168 µM·h. Further, the Ratio in series [11] is given as 0.498. Also, the concentration at 6 h in series [12] turned out to be 28.1 µM.
Turning to `CC[C@@H]([C@H](C)O)n1ncn(-c2ccc(N3CCN(c4ccc(OC[C@@H]5CO[C@@](Cn6cncn6)(c6ccc(F)cc6F)C5)cc4)CC3)cc2)c1=O` [POSACONAZOLE], the IC50 in [2] is 8.1 µM; in series [4], greater than 133 µM; in [10] it was greater than 133 µM; in series [5] it was greater than 133 µM. Also, in series [13], the concentration at 8 h stood at 4.41 µM. In series [14], this compound had an AUC at 8 h of 35.2 µM·h. Besides, the Ratio in [15] amounted to 0.544.
On to `CCc1ccc(CCOc2ccc(CC3SC(=O)NC3=O)cc2)nc1` (stereo not drawn) [PIOGLITAZONE], for which the IC50 was 49.5 µM in series [4] and greater than 133 µM in series [5]. Besides, the AUC at 24 h in series [16] was found to be 22.4 µM·h. For the same compound, in series [17], the concentration at 24 h is 0.935 µM. For the same compound, the Ratio was 0.019 in series [18] and 2.338 in series [19].
